{"source": "patent US7696408B2", "about": "“Method to enhance Agrobacterium-mediated transformation of plants” (Regents of the University of Minnesota, priority 1999, dated 2010)", "key": {"grape": {"tested_on": "grape", "settings": "Perl et al., 1996; cited from earlier work"}, "[1]": {"tested_on": "soybean cot-node explants", "assay": "GUS transient expression on soybean cot-node explants after 5-day co-cultivation with Agrobacterium (T-DNA delivery)", "assay_type": "cell-based, Glycine max", "settings": "for infection after co-cultivation (experiment #9): 400 mg/l in co-cultivation media, MN0901, AGL1 and LBA4404", "description": "For each seedling, the roots and the majority of the hypocotyl were removed approximately 3-5 mm below the cotyledonary node by cutting the hypocotyl with a scalpel (Hinchee et al., 1998). The two cotyledons were then separated by cutting vertically through the hypocotyl region resulting in two explants. The epicotyl was subsequently removed on both explants, including all primary leaves and shoot meristems, and both the axillary bud and cotyledonary node were wounded by cutting about 10 times with a scalpel blade perpendicular to the hypocotyl. After all explants in a set were wounded (about 50), they were placed in a 25×100 mm petri plate containing 50 ml co-culture suspension for 30 minutes or inoculated into the 25 ml co-cultivation/Agrobacterium suspension for 30 minutes. The explants were then cultured on an agar-solidified co-culture media (0.5%) either without the addition of a test agent (e.g., cysteine) in 15×100 mm petri plates on top a sterile Whatman®#1 filter paper; five explants per plate with adaxial side down. Five plates were stacked together and wrapped in Parafilm®M then incubated at either 22° C. or 25° C. for 5 days in the dark.\nAfter 5 days, the explants were washed in a liquid shoot induction media (B5 salts, MSIII iron stock, 3% sucrose, 3 mM MES, and filter sterilized B5 vitamins, 1.67 mg/l BAP, 100 mg/l cefotaxime, and 500 mg/l ticarcillin; pH 5.6) to remove excess Agrobacterium. Seven to ten explants from each cysteine level were washed in liquid shoot induction medium and placed in GUS histochemical stain (Jefferson et al., 1987). These explants were scored for GUS transient expression. Five to ten explants from each group were imbedded into a single 25×100 mm petri plate with solid shoot induction media (0.8% agar and agent, e.g., 400 mg/l cysteine) containing PPT concentrations of 1.33 mg/l, 3.33 mg/l, or 5.0 mg/l for selection. The plates were then incubated in a growth chamber with a fluctuating temperature between 18° C.-30° C. under a 18 hours light/6 hours dark cycle at 90-150 μE/m^2s.\nThe level of infection was scored using the GUS gene as a phenotypic marker immediately after co-culture and again after 4 weeks in shoot induction media. As it can be difficult to score the explants after co-cultivation due to the variation among explants and, in some cases, a complete staining of the target tissues, 6 categories were formed to assess the success of infection: • 4) None=There were no GUS positive sectors on any of the explants; • 5) Very low=Not all explants have GUS positive sectors, however, some have discrete foci usually seen on the hypocotyl or cot-node region. • 6) Low=More than ¾ the explants have GUS positive sectors in discrete foci on the hypocotyl and the cot-node region, but the foci are not numerous (<20). • 7) Medium=More than ½ the explants have significant GUS positive sectors at the cot-node region and hypocotyl, some seen as long lines of cells or larger sectors. • 8) Good=More than ¾ the explants have significant staining at the hypocotyl, the entire cot-node region, and on the cotyledons. […] Almost all explants have regions that are completely GUS positive. To reduce bias, samples were chosen at random and the level of infection scored before noting the treatment conditions. Samples that were between two categories are marked accordingly; those samples that resembled one category more than another were marked with a capital “X” and the other with a lowercase “x”.\nWounded soybean cot-node explants prepared from the cultivar ‘Bert’ were co-cultivated with Agrobacterium on solid co-cultivation medium containing various levels of cysteine for 5 days."}, "[2]": {"tested_on": "Japonica rice meristem cultures", "settings": "individually or in combination; Enríguez-Obregón et al., 1999; cited from earlier work"}, "[3]": {"tested_on": "soybean cot-node explants", "assay": "GUS+ sectors, shoots and shoot primordia after 28 days (4 weeks) on shoot induction medium with PPT (stable transformation)", "assay_type": "cell-based, Glycine max", "settings": "amended to solid co-cultivation media", "procedure": "After 5 days, the explants were washed in a liquid shoot induction media (B5 salts, MSIII iron stock, 3% sucrose, 3 mM MES, and filter sterilized B5 vitamins, 1.67 mg/l BAP, 100 mg/l cefotaxime, and 500 mg/l ticarcillin; pH 5.6) to remove excess Agrobacterium. Seven to ten explants from each cysteine level were washed in liquid shoot induction medium and placed in GUS histochemical stain (Jefferson et al., 1987). These explants were scored for GUS transient expression. Five to ten explants from each group were imbedded into a single 25×100 mm petri plate with solid shoot induction media (0.8% agar and agent, e.g., 400 mg/l cysteine) containing PPT concentrations of 1.33 mg/l, 3.33 mg/l, or 5.0 mg/l for selection. The plates were then incubated in a growth chamber with a fluctuating temperature between 18° C.-30° C. under a 18 hours light/6 hours dark cycle at 90-150 μE/m^2s. The explants were removed from the chamber after 14 days and transferred to fresh shoot induction media containing herbicide selection. During the transfer, the hypocotyl was carefully removed from the developing shoot mass and imbedded into the media with the differentiating tissue flush with the media surface. The plates were placed back into the growth chamber for an additional 2 weeks. At the 4 week time point, explants without de novo shoot production were discarded. The cotyledons were then removed from the differentiating tissue by cutting at the base of the node and the callus trimmed before transferring into shoot elongation media containing MS salts (murashige and Skoog, 1962), MSIII iron stock, 3% sucrose, 3 mM MES, 0.8% agar, and filter sterilized B5 vitamins, 50 mg/l asparagine, 100 mg/l pyroglutamic acid, 1 mg/l zeatin riboside, 0.1 mg/l indole-acetic acid, 0.5 mg/l GA3, 100 mg/l cefotaxime, 500 mg/l ticarcillin, 1.3-5 mg/l PPT; pH 5.6). Also at this time, a percentage of the explants were sliced into about 10 sections and stained for both GUS positive sectors and GUS positive shoots. Every 2 weeks the explants were transferred into new shoot elongation media after removing dead plant tissue and the bottom of the explant cut to encourage shoot elongation of transformed shoots. For the 4 week data, the minimum number of transformation events was recorded. Those explants with a GUS positive sector in the differentiating tissue giving rise to shoots were recorded with the number of transformation events in bold and italicized (FIGS. 2-5). Shoot data was obtained by recording the number of fully formed shoots seen on an explant. […] To determine the effect of adding cysteine to the co-cultivation medium on stable transformation, co-cultured explants were cultured for 28 days on a shoot-inducing medium containing the herbicide, phosphinothricin (PPT). During the 28 day incubation, the explants usually form de novo callus and shoots in the cot-node region in a structure referred to as a callus/shoot pad (FIG. 9). The callus/shoot pads were sliced in approximately 5 mm sections, immersed into GUS histochemical stain, and scored for GUS^+ sectors throughout the callus/shoot pad. […] The formation of transgenic shoot primordia and sectors extending into developing shoot tissues were also scored on 28 day sections of explants co-cultivated on 0 and 400 mg/l cysteine (FIG. 10A). Only those GUS^+ shoot primordia with obvious trichomes, which are characteristic to leaf tissue, or GUS^+ sectors originating and extending into the tissue at the base of developing shoots (referred to hereafter as differentiating tissue) were scored (FIG. 1A2)."}, "[4]": {"settings": "Bert, LBA4404 pTOK233, agent in solid co-cultivation media, concentrations of Table 1, 5-day incubation"}, "[5]": {"settings": "agent added to co-cultivation medium"}}, "note": "Where two headings read alike, the source gives them in different places."}
{"smiles": "O[C@H](CS)[C@H](O)CS", "note": "(racemic) [DTT, dithiothreitol]", "values": [{"measurement": "plant viability after Agrobacterium-mediated transformation of grape", "setting": "grape", "result": "increase plant viability"}, {"measurement": "GUS+ staining after co-cultivation", "setting": "[1]; [4]", "result": "increases"}, {"measurement": "Agrobacterium-mediated T-DNA transfer/delivery into cot-node cells", "setting": "[1]; [5]", "result": "increased"}, {"measurement": "Agrobacterium-mediated T-DNA transfer/delivery into cot-node cells", "setting": "[1]; agent added to co-cultivation medium, listed as dithiothreitol", "result": "Increases"}]}
{"smiles": "O=C1O[C@H]([C@@H](O)CO)C(O)=C1O", "note": "[Ascorbic acid]", "values": [{"measurement": "damage and viability of Japonica rice meristem cultures", "setting": "[2]", "result": "decreased damage and increased viability"}]}
{"smiles": "Cc1cc(-c2ccc(S(=O)(=O)O)cc2)c2ccc3c(-c4ccc(S(=O)(=O)O)cc4)cc(C)nc3c2n1", "note": "[Bathocuproine disulfonic acid]", "values": [{"measurement": "GUS+ staining after co-cultivation", "setting": "[1]; [4]", "result": "increases"}, {"measurement": "Agrobacterium-mediated T-DNA transfer/delivery into cot-node cells", "setting": "[1]; [5]", "result": "Increases"}, {"measurement": "GUS+ staining with metal chelator", "setting": "[1]; range from added chelator to added copper or iron", "result": "significantly increased"}]}
{"smiles": "O=S(=O)(O)c1ccc(-c2ccnc3c2ccc2c(-c4ccc(S(=O)(=O)O)cc4)ccnc23)cc1", "note": "[Bathophenanthroline disulfonic acid]", "values": [{"measurement": "GUS+ staining after co-cultivation", "setting": "[1]; [4]", "result": "increases"}, {"measurement": "Agrobacterium-mediated T-DNA transfer/delivery into cot-node cells", "setting": "[1]; [5]", "result": "Increases"}]}
{"smiles": "N[C@H](CS)C(=O)O", "note": "[D-cysteine]", "values": [{"measurement": "Agrobacterium-mediated T-DNA transfer/delivery into cot-node cells", "setting": "[1]; [5]", "result": "Increases"}, {"measurement": "GUS+ foci at the 5-day interval", "setting": "[1]; amended to solid co-cultivation media", "result": "increase"}, {"measurement": "GUS+ foci at the 28-day interval", "setting": "[3]", "result": "increase"}]}
{"smiles": "N[C@@H](CCC(=O)N[C@@H](CS)C(=O)NCC(=O)O)C(=O)O", "note": "[Glutathione]", "values": [{"measurement": "infection after co-cultivation (experiment #9)", "setting": "[1]", "result": "did not result in an increase in infection"}, {"measurement": "GUS+ staining after co-cultivation", "setting": "[1]; [4]", "result": "increases"}, {"measurement": "Agrobacterium-mediated T-DNA transfer/delivery into cot-node cells", "setting": "[1]; [5]", "result": "Increases"}]}
{"smiles": "N[C@@H](CSSC[C@H](N)C(=O)O)C(=O)O", "note": "[L-cystine]", "values": [{"measurement": "Agrobacterium-mediated T-DNA transfer/delivery into cot-node cells", "setting": "[1]; [5]", "result": "Increases"}]}
{"smiles": "CSCC[C@H](N)C(=O)O", "note": "[Methionine]", "values": [{"measurement": "infection after co-cultivation (experiment #9)", "setting": "[1]", "result": "did not result in an increase in infection"}]}
{"smiles": "O=S([O-])([O-])=S.[Na+].[Na+]", "note": "[Na-thiosulfate, sodium thiosulfate]", "values": [{"measurement": "Agrobacterium-mediated T-DNA transfer/delivery into cot-node cells", "setting": "[1]", "result": "Increases"}, {"measurement": "GUS+ staining after co-cultivation", "setting": "[1]", "result": "increases"}]}
{"smiles": "O=[N+]([O-])[O-].[Ag+]", "note": "[silver nitrate]", "values": [{"measurement": "damage and viability of Japonica rice meristem cultures", "setting": "[2]", "result": "decreased damage and increased viability"}]}
